Laboratory results as given in ChEMBL document CHEMBL4043157, “Benzothiazole analogues: Synthesis, characterization, MO calculations with PM6 and DFT, in silico studies and in vitro antimalarial as DHFR inhibitors and antimicrobial activities” (Bioorg Med Chem, 2017).
pIC50: −log10 of the molar value. In brackets after ≈: the same amount, converted by molar mass. Activity calls are given as the source filed them. No cut-off for these calls is given here.

Tests used:
Streptococcus pyogenes = assay: Antimicrobial activity against Streptococcus pyogenes MTCC 442; type: functional
Plasmodium falciparum = assay: Antimalarial activity against Plasmodium falciparum; type: functional
[1] = Cytotoxicity in Schizosaccharomyces pombe assessed as cell viability at 10 ug/ml (reference value: 94.67 +/- 1.53%); conditions: Schizosaccharomyces pombe cells, read-out: Activity
[2] = Cytotoxicity in Schizosaccharomyces pombe assessed as cell viability at 4 ug/ml (reference value: 94.67 +/- 1.53%); conditions: Schizosaccharomyces pombe cells, read-out: Activity
[3] = Cytotoxicity in Schizosaccharomyces pombe assessed as cell viability at 2 ug/ml (reference value: 94.67 +/- 1.53%); conditions: Schizosaccharomyces pombe cells, read-out: Activity
Aspergillus clavatus [4] = conditions: MTCC 1323
[5] = test system: Schizosaccharomyces pombe; assay: Genotoxicity in Schizosaccharomyces pombe assessed as induction of DNA damage by measuring appearance of DNA smear DNA band at 2 to 10 ug/ml by agarose gel electrophoresis
[6] = Cytotoxicity in Schizosaccharomyces pombe assessed as cell viability at 6 ug/ml (reference value: 94.67 +/- 1.53%); conditions: Schizosaccharomyces pombe cells, read-out: Activity
Staphylococcus aureus = assay: Antimicrobial activity against Staphylococcus aureus MTCC 96; type: functional
[7] = Cytotoxicity in Schizosaccharomyces pombe assessed as cell viability at 8 ug/ml (reference value: 94.67 +/- 1.53%); conditions: Schizosaccharomyces pombe cells, read-out: Activity
Candida albicans = assay: Antimicrobial activity against Candida albicans MTCC 227; type: functional
Pseudomonas aeruginosa = assay: Antimicrobial activity against Pseudomonas aeruginosa MTCC 1688; type: functional
Escherichia coli = assay: Antimicrobial activity against Escherichia coli MTCC 443; type: functional
Aspergillus clavatus [8] = assay: Antimicrobial activity against Aspergillus clavatus MTCC 1323; type: functional
Dihydrofolate reductase = target: T1, Dihydrofolate reductase (Bos taurus, UniProt P00376); assay: Inhibition of bovine liver DHFR
T1 sequence (P00376 whole entry): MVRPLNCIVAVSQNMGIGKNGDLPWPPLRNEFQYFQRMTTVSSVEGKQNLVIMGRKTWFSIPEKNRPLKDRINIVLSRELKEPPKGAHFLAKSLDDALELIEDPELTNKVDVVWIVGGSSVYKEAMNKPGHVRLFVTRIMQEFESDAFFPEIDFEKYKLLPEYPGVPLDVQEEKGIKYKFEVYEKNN

Molecule | MIC (Streptococcus pyogenes) [µM] | pIC50 (Plasmodium falciparum) | viability at 10 ug/ml [1] [%] | viability at 4 ug/ml [2] [%] | viability at 2 ug/ml [3] [%] | MIC (Aspergillus clavatus [4]) | Activity [5] | viability at 6 ug/ml [6] [%] | MIC (Staphylococcus aureus) [µM] | viability at 8 ug/ml [7] [%] | MIC (Candida albicans) | MIC (Pseudomonas aeruginosa) [µM] | MIC (Escherichia coli) [µM] | MIC (Aspergillus clavatus [8]) [µM] | pIC50 (Dihydrofolate reductase)
C(=N\c1nc2ccccc2s1)/c1ccco1 | 439 (≈ 100 µg/mL) | 5.73 | 61.7 | 73 | 78.7 | inactive | Toxic | 64 | 877 (≈ 200 µg/mL) | 62.3 | 4380 µM (≈ 1000 µg/mL) | 877 (≈ 200 µg/mL) | 548 (≈ 125 µg/mL) | – | –
Clc1ccc(/C=N/c2nc3ccccc3s2)cc1Cl | 327 (≈ 100 µg/mL) | 6.01 | 73.3 | 84.3 | 89 | – | Toxic | 81 | 409 (≈ 126 µg/mL) | 77 | inactive | 409 (≈ 126 µg/mL) | 409 (≈ 126 µg/mL) | 1630 (≈ 502 µg/mL) | –
C(=N\c1nc2ccccc2s1)/c1ccc[nH]1 | 440 (≈ 100 µg/mL) | 5.72 | 69.7 | 82.3 | 87 | – | Toxic | 74.3 | 551 (≈ 125 µg/mL) | 71.7 | 2200 µM (≈ 500 µg/mL) | 1100 (≈ 250 µg/mL) | 881 (≈ 200 µg/mL) | 4400 (≈ 1000 µg/mL) | –
COC1=CC(=O)C[C@@H](C)[C@]12Oc1c(Cl)c(OC)cc(OC)c1C2=O [GRISEOFULVIN] | – | – | – | – | – | – | – | – | – | – | 1420 µM (≈ 501 µg/mL) | – | – | 284 (≈ 100 µg/mL) | –
C(=N\c1nc2ccccc2s1)/c1cccs1 | 410 (≈ 100 µg/mL) | 5.99 | 67 | 81.7 | 86 | inactive | Toxic | 80.7 | 410 (≈ 100 µg/mL) | 73 | 4100 µM (≈ 1000 µg/mL) | 410 (≈ 100 µg/mL) | 256 (≈ 62.6 µg/mL) | – | –
CCn1cc(C(=O)O)c(=O)c2cc(F)c(N3CCNCC3)cc21 [NORFLOXACIN] | 31 (≈ 9.9 µg/mL) | – | – | – | – | – | – | – | 31 (≈ 9.9 µg/mL) | – | – | 31 (≈ 9.9 µg/mL) | 31 (≈ 9.9 µg/mL) | – | –
CC1(C)S[C@@H]2[C@H](NC(=O)[C@H](N)c3ccccc3)C(=O)N2[C@H]1C(=O)O [AMPICILLIN] | 286 (≈ 99.9 µg/mL) | – | – | – | – | – | – | – | 716 (≈ 250 µg/mL) | – | – | 286 (≈ 99.9 µg/mL) | 286 (≈ 99.9 µg/mL) | – | –
Brc1ccc(/C=N/c2nc3ccccc3s2)cc1 | 633 (≈ 201 µg/mL) | 6.54 | 66.3 | 73.3 | 77.3 | inactive | Toxic | 72.3 | 791 (≈ 251 µg/mL) | 68.3 | inactive | 396 (≈ 126 µg/mL) | 198 (≈ 62.8 µg/mL) | – | 7.34
NYSTATIN | – | – | – | – | – | 108 µM | – | – | – | – | 108 µM | – | – | – | –
Oc1ccc(/C=N/c2nc3ccccc3s2)cc1 | 1970 (≈ 500 µg/mL) | 6.41 | 65.3 | 75 | 87 | inactive | Toxic | 69.3 | 984 (≈ 250 µg/mL) | 68.3 | inactive | 394 (≈ 100 µg/mL) | 394 (≈ 100 µg/mL) | – | 7.29
Clc1ccc(/C=N/c2nc3ccccc3s2)cc1 | 368 (≈ 100 µg/mL) | 6.45 | 75.3 | 87 | 89.3 | – | Toxic | 82.7 | 460 (≈ 125 µg/mL) | 78 | 3680 µM (≈ 1000 µg/mL) | 460 (≈ 125 µg/mL) | 735 (≈ 200 µg/mL) | 1840 (≈ 501 µg/mL) | 7.38
O=[N+]([O-])c1cccc(/C=N/c2nc3ccccc3s2)c1 | 883 (≈ 250 µg/mL) | 6.70 | 70.3 | 84 | 88.7 | – | Toxic | 79.3 | 707 (≈ 200 µg/mL) | 74.7 | 1770 µM (≈ 501 µg/mL) | 221 (≈ 62.6 µg/mL) | 883 (≈ 250 µg/mL) | 883 (≈ 250 µg/mL) | 7.51
CCc1nc(N)nc(N)c1-c1ccc(Cl)cc1 [PYRIMETHAMINE] | – | 6.00 | – | – | – | – | – | – | – | – | – | – | – | – | –
O=C(N[C@H](CO)[C@H](O)c1ccc([N+](=O)[O-])cc1)C(Cl)Cl [CHLORAMPHENICOL] | 155 (≈ 50.1 µg/mL) | – | – | – | – | – | – | – | 155 (≈ 50.1 µg/mL) | – | – | 155 (≈ 50.1 µg/mL) | 155 (≈ 50.1 µg/mL) | – | –
O=C(O)c1cn(C2CC2)c2cc(N3CCNCC3)c(F)cc2c1=O [CIPROFLOXACIN] | 151 (≈ 50 µg/mL) | – | – | – | – | – | – | – | 151 (≈ 50 µg/mL) | – | – | 75 (≈ 24.9 µg/mL) | 75 (≈ 24.9 µg/mL) | – | –
O=[N+]([O-])c1ccccc1/C=N/c1nc2ccccc2s1 | 221 (≈ 62.6 µg/mL) | 6.40 | 72.3 | 82 | 84.3 | inactive | Toxic | 79.7 | 353 (≈ 100 µg/mL) | 77 | 3530 µM (≈ 1000 µg/mL) | 707 (≈ 200 µg/mL) | 442 (≈ 125 µg/mL) | – | 7.27
Fc1ccc(/C=N/c2nc3ccccc3s2)cc1 | 391 (≈ 100 µg/mL) | 5.83 | 71.7 | 81.7 | 86.3 | – | Toxic | 73 | 244 (≈ 62.5 µg/mL) | 72.3 | 1950 µM (≈ 501 µg/mL) | 976 (≈ 250 µg/mL) | 781 (≈ 200 µg/mL) | 1950 (≈ 501 µg/mL) | –
